Values of other authors as cited in patent publication US20240398989A1, “METHODS AND COMPOSITIONS FOR DIAGNOSIS AND TREATMENT OF METABOLIC DISORDERS” (The Broad Institute, Inc., priority 2021, published 2024).

Conditions: cited from earlier work
[1] = 1 year follow up clinical trial

## CC1(C)CCC(CN2CCN(c3ccc(C(=O)NS(=O)(=O)c4ccc(NCC5CCOCC5)c([N+](=O)[O-])c4)c(Oc4cnc5[nH]ccc5c4)c3)CC2)=C(c2ccc(Cl)cc2)C1 [venetoclax]
[1]
  hyperglycemia, share of patients: 16%
  severe hyperglycemia, share of patients: 5%
Clinical trial
  loss of body weight, share of cases: 11-13%
